Source: patent US20050080102A1, “Compound and uses thereof” (priority 2002, published 2005)

Assays:
Format in all cases: biochemical
Apaf-1 (apoptosome) = assay: Apoptosome formation in HeLa cell S-100, gel-filtration chromatography and Western blot against Apaf-1
Experimental: In order to find out how this small molecule ([…]) promotes activation of caspase-3, apoptosome formation was analyzed using gel-filtration chromatography followed by Western blot analysis against Apaf-1 (Zou H et al., Cell 90:405-413, 1997). Other methods known to those of ordinary skill in the art may also be used for such an analysis.

[1] = test system: extracts from human tumor cells (caspase activation); assay: Response of extracts from a battery of human tumor cells to PETCM; details: colon cancer, prostate cancer, promyelocytic leukemia, T cell leukemia, bone marrow leukemia, malignant melanoma, lymphoma, glioblastoma cells
Experimental: Extracts from a battery of human tumor cells were also screened for their response to PETCM. It was determined that many human cancer lines, including colon cancer, prostate cancer, promyelocytic leukemia, T cell leukemia, bone marrow leukemia, malignant melanoma, lymphoma, and glioblastoma cells were responsive. […] PETCM and the PETCM-stimulated caspase activation pathway are therefore of fundamental and clinical significance with respect to malignant mammalian cells. Thus, the present invention encompasses a method of stimulating caspase activity in malignant cells comprising exposing said cells to PETCM or administering PETCM to said cells.

caspase-3 [2] = assay: Caspase-3 activation in HeLa cell lysate/S-100 (Ac-DEVD-pNA cleavage, HTS)
Experimental: Other means of measuring caspoase-3 activation are also encompassed herein and are readily known to those of ordinary skill in the art.
With respect to Example I, the high throughput screening (HTS) was essentially a cell-lysate assay in which the endpoint, activation of caspase-3, was monitored by the cleavage of a calorimetric substrate. HeLa cell lysate was prepared by Cellex Bioscience (Minneapolis, Minn.). This lysate was thawed and centrifuged before use (15K rpm in a JA20 Beckman rotor, Fullerton, Calif.). […] The plates were allowed to incubate for three to four hours. When 90% of the Ac-DEVD-pNA (Bachem L1945) was converted by the activated capsase-3 in the control plate, the screening plates were read again at 390 nm. The change in absorbency was scaled to the fully-activated control (cytochrome c) and the negative control (no compound).

[3] = test system: apoptosome (Apaf-1/caspase-9); assay: Apoptosome formation and caspase-9 activation in reconstituted system (Q30, cytochrome c, dATP)
Experimental: FIG. 5 illustrates regulation of apoptosome by ProT and PHAP. FIG. 5(A) illustrates that PHAP accelerates caspase-3 activation after PETCM antagonizes the inhibitory activity of ProT. FIG. 5(B) illustrates that ProT inhibits apoptosome formation, and PETCM can antagonize the inhibitory activity. FIG. 5(C) illustrates that PHAP enhances caspase-9 activation. Apoptosome formation was measured as described in FIG. 1.
Subsequently, regulation of apoptosome by these players was tested. […] PETCM promotes caspase-3 activation by removing the inhibition of ProT on apoptosome formation, allowing PHAPs to stimulate apoptosome activity.

caspase-3 [4] = assay: Caspase-3 activation in extracts from RNAi treated HeLa cells; details: extracts from control RNAi treated-cells (FIG. 6D)
Description: (SEQ ID NO:7) and […] (SEQ ID NO:9) and […]

[5] = test system: caspase-3 (procaspase-3 cleavage); assay: Caspase-3 activation reconstituted with HeLa S-100 fractions (Q-ft, Q30, Q100) and purified/recombinant proteins
Description: To study the mechanism, HeLa cell S-100 extracts were fractionated using an anion exchange column. […] The first fraction, Q-ft, flew through the column and contained cytochrome c (Liu et al., Cell 86:147 (1996)). The second fraction, Q30, was eluted with 0.3 M NaCl and contained Apaf-1 (Zou et al., Cell 90:405 (1997)) and procaspase-9 (Li et al., Cell 91:479 (1997)). The third fraction, Q100, was eluted with 1 M NaCl. These three fractions were then used in different combinations to search for proteins that might mediate the PETCM effect.
The inhibitory activity was assayed by adding column fractions to the mixture of Q30/cytochrome c/PHAP/dATP.
Ten ml of HeLa S-100 (˜60 mg total protein) was loaded on a 1-ml HiTrap Q column (Pharmacia) pre-equilibrated with Buffer A (i.e., 20 mM Hepes-KOH, pH7.5, 10 mM KCl, 1.5 mM Mg Cl2, 1 mM sodium EDTA and 1 mM sodium EGTA, 1 mM dithiothreitol, and 0.1 mM PMSF). The flowthrough (Q-ft) was collected. After being washed with 10-ml of Buffer A, the column was eluted with 10-ml of Buffer A containing 300 mM NaCl, and the eluted protein peak ([…]) was collected (Q30). Subsequently, the column was eluted with Buffer A containing 1 M NaCl, and the protein peak (−3 ml) was collected and dialyzed for overnight (Q100).

With `OC(Cc1ccncc1)C(Cl)(Cl)Cl` (stereo not drawn) [PETCM, alpha-(trichloromethyl)-4-Pyridineethanol] the “efficiency of apoptosome formation compared with dATP” value (Apaf-1 (apoptosome); 0.2 mM PETCM vs 1 mM dATP) was “better than 1 mM dATP”, the “apoptosome formation (Apaf-1 shift)” value (Apaf-1 (apoptosome); S-100 incubated with 0.2 mM PETCM) was “Apaf-1 was also shifted to the position of apoptosome” and the “response of human cancer line extracts to PETCM” value [1] was “responsive”. For the same molecule, the “efficiency in activating caspase-3 compared with dATP” value (caspase-3 [2]; 0.2 mM PETCM vs 1.0 mM dATP) was “more efficient in activating caspase-3 than 1.0 mM dATP”, the “DEVD activity of HeLa S-100” value (caspase-3 [2]; FIG. 1(B), increasing amounts of PETCM) was “stimulates DEVD activity of HeLa S-100 in a dose-dependent manner” and the apoptosome formation ([3]; FIG. 5B, ProT plus PETCM) was “relieved the blockage”. The “caspase-3 activation in extracts, PETCM requirement” value (caspase-3 [4]) was “responsive to PETCM”, the “reversal of Q100 suppression of PHAP stimulatory activity” value ([5]; PHAP with Q100 added back (FIG. 4A, lanes 5-6)) was “the suppression was reversed by the addition of PETCM” and the caspase-3 activation ([5]; Q30, cytochrome c, 10 μM dATP, PHAPI, ProT, with PETCM (FIG. 5A, lane 4)) was “the inhibitory effect of ProT was reversed”. The caspase-3 activation ([5]; Q-ft + Q30 + Q100, 0.2 mM PETCM with 10 μM dATP (lane 5)) was “caspase-3 activation was observed at 10 μM dATP” and the caspase-3 activation ([5]; Q-ft + Q30 + Q100, PETCM, dATP completely omitted (lane 4)) was “No caspase-3 activation was seen”.

With `Nc1ncnc2c1ncn2[C@H]1C[C@H](O)[C@@H](COP(=O)(O)OP(=O)(O)OP(=O)(O)O)O1` [dATP, 2′-deoxyadenosine-5′-triphosphate, reference compound] the “apoptosome formation (Apaf-1 shift)” value (Apaf-1 (apoptosome); S-100 incubated with 1 mM dATP) was “most of the Apaf-1 was shifted to the size of ˜1 million Dalton”, the caspase-3 activation ([5]; Q-ft + Q30 + Q100, 10 μM dATP (lane 3)) was “little caspase-3 activation was observed” and the caspase-3 activation ([5]; Q-ft + Q30 + Q100, 1 mM dATP (lane 2)) was “robust caspase-3 activation”.

For “PHAPI: recombinant His-tagged PHAPI, putative tumor suppressor protein that stimulates caspase activation”, the apoptosome formation ([3]; presence of PHAPI) was “did not affect the efficiency of apoptosome formation”, the caspase-9 activation ([3]; presence of PHAPI (FIG. 5C)) was “more activated caspase-9 was observed” and the caspase-3 activation ([5]; Q30 fraction plus cytochrome c and 10 μM dATP (FIG. 5A, lane 2)) was “stimulated caspase-3 activation”.
